Test systems include SNB-19 CNS; 786-0 renal; M14 melanoma; COLO 205 colon; XF 498 CNS; LOX IMVI melanoma; OVCAR-3 ovarian; RXF 393 renal; HOP-62 NSCLC; U251 CNS.
Assay in all cases: NCI-60 cell line screen, 48 h

Several values for one entry are separate records, joined by “and”; a condition that tells them apart may be missing. Equal values may be shown once.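 Results reflect a 48-hour exposure of cells in 96-well plates to compound at five concentrations. GI50 marks 50% less growth. At the TGI there is no net growth.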

On to `CC1=NN(C(=O)c2ccncc2)C(=O)C1N=Nc1ccc(F)cc1` (configuration not stated), for which the TGI in the assay on SNB-19 CNS, in the assay with 786-0 renal, with M14 melanoma, with COLO 205 colon, in the assay on XF 498 CNS and in the assay on LOX IMVI melanoma was above 100 µM each time. Besides, the TGI in the assay on OVCAR-3 ovarian and in the assay on RXF 393 renal was above 100 µM in each case.
On to `Cc1ccc2oc(=O)c(-c3ccccc3)nc2c1`, for which the TGI in the assay with SNB-19 CNS was above 100 µM; with 786-0 renal it was above 100 µM; with M14 melanoma, above 100 µM; with HOP-62 NSCLC it was above 100 µM; in the assay with COLO 205 colon, 71.1 µM; with XF 498 CNS, above 100 µM. Further, the TGI in the assay on LOX IMVI melanoma was 62.9 µM; in the assay with OVCAR-3 ovarian it was above 100 µM.
Take `CC(C)[O-].CC(C)[O-].O=c1cccccc1[O-].O=c1cccccc1[O-].[Ti+4]`: the TGI was above 100 µM in the assay with SNB-19 CNS; 69.9 µM in the assay on 786-0 renal; above 100 µM with M14 melanoma; above 100 µM with HOP-62 NSCLC; above 100 µM in the assay on COLO 205 colon; 97.3 µM in the assay with XF 498 CNS. For the same compound, the TGI with LOX IMVI melanoma, with U251 CNS and in the assay with OVCAR-3 ovarian was above 100 µM in each case. Besides, the GI50 with HOP-62 NSCLC is above 100 µM; in the assay on XF 498 CNS, 33.8 µM; in the assay on U251 CNS, 28.9 µM.
With `O=C1C2=C(CCC2)Nc2cccc3ncn1c23`, the TGI with SNB-19 CNS, in the assay on 786-0 renal, in the assay with COLO 205 colon, in the assay on XF 498 CNS, in the assay on LOX IMVI melanoma and with U251 CNS was above 100 µM each time. The compound further had a TGI in the assay with RXF 393 renal above 100 µM.
As for `O=C1CNS(=O)(=O)N1`, the TGI with SNB-19 CNS, with 786-0 renal, in the assay on M14 melanoma, in the assay with HOP-62 NSCLC, in the assay on COLO 205 colon and with XF 498 CNS was above 100 µM throughout. Further, in the assay on OVCAR-3 ovarian, the TGI is above 100 µM.
As to `O=C1c2ccccc2-c2c1c1c(NCCCO)nc3ccccc3c1n2Cc1ccccc1`, the GI50 was 27.8 µM in the assay with SNB-19 CNS; 21.3 µM with 786-0 renal; 26.8 µM in the assay on M14 melanoma; 19.3 µM with HOP-62 NSCLC; 34.2 µM in the assay on COLO 205 colon; 15.9 µM in the assay on LOX IMVI melanoma. The GI50 is 20.8 µM with U251 CNS, 19.8 µM with OVCAR-3 ovarian and 32.5 µM in the assay with RXF 393 renal. For the same compound, the TGI with SNB-19 CNS is 73.1 µM; in the assay on 786-0 renal, 43.7 µM; in the assay with M14 melanoma it was 58.2 µM; in the assay on HOP-62 NSCLC, 35.7 µM; in the assay with COLO 205 colon it was above 100 µM; in the assay with LOX IMVI melanoma, 30.9 µM. Also, the TGI in the assay on U251 CNS amounted to 44.9 µM; in the assay on OVCAR-3 ovarian it was 45.9 µM; with RXF 393 renal, 86.6 µM.
Consider `Fc1ccc2nc(-c3cc(-c4ccc5c(c4)OCO5)n[nH]3)[nH]c2c1`, for which the GI50 was above 32.5 µM in the assay on SNB-19 CNS; 5.89 µM in the assay with 786-0 renal; 2.78 µM in the assay with M14 melanoma; 5.44 µM with HOP-62 NSCLC; 9.22 µM in the assay with COLO 205 colon; 2.18 µM with LOX IMVI melanoma. Also, the GI50 in the assay on U251 CNS was 2.49 µM; with OVCAR-3 ovarian it was 3.29 µM; with RXF 393 renal, 2.81 µM. The TGI in the assay on SNB-19 CNS is above 100 µM; with 786-0 renal, above 80 µM; in the assay on M14 melanoma it was above 32.5 µM; with HOP-62 NSCLC it was above 43.4 µM; in the assay on COLO 205 colon, above 66.1 µM; with LOX IMVI melanoma, 10.4 µM. The results for the TGI with U251 CNS, in the assay on OVCAR-3 ovarian and in the assay with RXF 393 renal were above 35.8 µM, 18.3 µM and 32.1 µM, respectively.
On to `COc1cc(CNc2nc3ccc(C(F)(F)F)cc3nc2-c2ccccc2)cc(OC)c1OC`, for which the TGI with SNB-19 CNS, with 786-0 renal, in the assay with M14 melanoma, in the assay on HOP-62 NSCLC, in the assay on COLO 205 colon and in the assay with XF 498 CNS was above 100 µM each time. Besides, the TGI with LOX IMVI melanoma, with U251 CNS and in the assay with OVCAR-3 ovarian was above 100 µM each time.
Consider `O=C(Cl)C1=C(c2ccccc2)C1c1ccccc1` (configuration not stated), for which the TGI in the assay with SNB-19 CNS, with 786-0 renal, with M14 melanoma, with HOP-62 NSCLC, with COLO 205 colon and in the assay on LOX IMVI melanoma was above 100 µM each time. The TGI in the assay with U251 CNS, in the assay with OVCAR-3 ovarian and with RXF 393 renal was above 100 µM each time.
`CCOc1ccc(Nc2c3ccccc3nc3ccccc23)cc1`: the GI50 is 0.817 µM and 0.556 µM with SNB-19 CNS; 0.666 µM and 0.34 µM in the assay on 786-0 renal; 0.359 µM and 0.312 µM in the assay with M14 melanoma; 0.416 µM and 0.672 µM in the assay on HOP-62 NSCLC; 0.313 µM and 0.307 µM in the assay on COLO 205 colon; 0.515 µM and 0.529 µM in the assay on LOX IMVI melanoma. Besides, the GI50 with U251 CNS is 0.464 µM and 0.381 µM; in the assay on OVCAR-3 ovarian it was 0.313 µM and 0.264 µM; with RXF 393 renal, 0.397 µM and 0.402 µM. The TGI in the assay on SNB-19 CNS was 13.8 µM and 15.3 µM; in the assay with 786-0 renal it was 6.67 µM and 2.61 µM; with M14 melanoma it was 1.51 µM and 1.69 µM; in the assay on HOP-62 NSCLC it was 5.25 µM and 13.1 µM; in the assay with COLO 205 colon, 1.39 µM and 1.33 µM; in the assay with LOX IMVI melanoma it was 2.98 µM. Also, the TGI with U251 CNS is 2.25 µM and 1.9 µM; in the assay on OVCAR-3 ovarian, 1.17 µM and 1.03 µM; in the assay with RXF 393 renal, 2.25 µM and 2.71 µM.
Turning to `Nc1cc(-c2ccc(Cl)cc2)nn1-c1nnc(/C=C/c2ccco2)c(=O)[nH]1`, the GI50 with SNB-19 CNS is 5.11 µM; with 786-0 renal, 5.04 µM; with M14 melanoma, 3.41 µM; in the assay on HOP-62 NSCLC, 6.83 µM; with COLO 205 colon, 3.64 µM; with LOX IMVI melanoma it was 4.82 µM. The GI50 is 3 µM in the assay on U251 CNS, 2.16 µM in the assay with OVCAR-3 ovarian and 9.91 µM in the assay on RXF 393 renal. In addition, the TGI in the assay on SNB-19 CNS is above 83.3 µM; in the assay with 786-0 renal, 23.9 µM; in the assay on M14 melanoma, 30.6 µM; in the assay on HOP-62 NSCLC, 60.1 µM; in the assay on COLO 205 colon, above 42.9 µM; in the assay with LOX IMVI melanoma it was 37.8 µM. Further, the TGI in the assay with U251 CNS worked out at 37.7 µM; in the assay with OVCAR-3 ovarian, 8.45 µM; with RXF 393 renal, 34.7 µM.

Source of the values: PubChem BioAssay (NCI).
